Measured values published in ChEMBL document CHEMBL1201862, “PubChem BioAssay data set” (2004).
“And” between values parts separate entries of the source, which are not always exact repeats. Identical values can stand only once.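 Dose response: 5 concentrations. Exposure: 48 h. Format: 96-well plates. Endpoint: linear interpolation; highest concentration if not reached. GI50: concentration for 50% inhibition of growth.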 The source made the active and inactive calls. Cut-off read from the data, not from the text of the source: active = GI50 up to about 1.1 µM and inactive = higher. Starred links: 1 amine or outer side, 2 acyl side, 3 side chain; linkers in the order of their positions; H or OH if unused. Non-standard residues stand in square brackets, D forms with d. Residues, ends and D or L forms follow the SMILES beside them. ξ: configuration not given here. Ile(3ξ) = CCC(C)[C@H](N)C(=O)O; X35 = C=CCC(O[*:1])C(=O)[*:2]; NMeV = CN[C@H](C(=O)O)C(C)C; NMeA = CN[C@@H](C)C(=O)O; βAla = NCCC(=O)O

Legend:
Experiment in all cases: growth of human tumour cells (NCI), 48 h
A498 = system: A498
SNB-19 = system: SNB-19
OVCAR-3 = system: OVCAR-3
RPMI-8226 = system: RPMI-8226
UO-31 = system: UO-31
HCT-15 = system: HCT-15
M19-MEL = system: M19-MEL
HT-29 = system: HT-29
NCI-H23 = system: NCI-H23
HOP-62 = system: HOP-62
A549 = system: A549
SF-539 = system: SF-539
SK-MEL-2 = system: SK-MEL-2
786-0 = system: 786-0
HCT-116 = system: HCT-116
SK-MEL-28 = system: SK-MEL-28
OVCAR-4 = system: OVCAR-4
EKVX = system: EKVX
MOLT-4 = system: MOLT-4

| Compound | GI50 (A498) | GI50 (SNB-19) | GI50 (OVCAR-3) | GI50 (RPMI-8226) | GI50 (UO-31) | GI50 (HCT-15) [µM] | GI50 (M19-MEL) | GI50 (HT-29) | GI50 (NCI-H23) | GI50 (HOP-62) | GI50 (A549) | GI50 (SF-539) | GI50 (SK-MEL-2) | GI50 (786-0) | GI50 (HCT-116) | GI50 (SK-MEL-28) | GI50 (OVCAR-4) | GI50 (EKVX) | GI50 (MOLT-4) |
| --- | --- | --- | --- | --- | --- | --- | --- | --- | --- | --- | --- | --- | --- | --- | --- | --- | --- | --- | --- |
| Nc1nc(Cl)c2ncn(CCCC(c3ccccc3)P(=O)(O)O)c2n1 (stereo unspecified) | > 100 µM (inactive) | > 100 µM (inactive) | > 100 µM (inactive) | > 100 µM (inactive) | > 100 µM (inactive) | > 100 | > 100 µM (inactive) | > 100 µM (inactive) | > 100 µM (inactive) | > 100 µM (inactive) | > 100 µM (inactive) | > 100 µM (inactive) | > 100 µM (inactive) | > 100 µM (inactive) | > 100 µM (inactive) | > 100 µM (inactive) | – | – | – |
| C=CCC1OC(=O)CCNC(=O)[C@H](C)N(C)C(=O)[C@H](C(C)C)N(C)C(=O)[C@H](C(C)CC)NC(=O)[C@@H]2CCCN2C1=O (stereo partly specified) (cyclo([Ile(3ξ)][NMeV][NMeA][βAla][X35]P)) | > 71.6 µM (inactive) | > 39.4 µM (inactive) | 13.3 µM (inactive) | 4.91 µM (inactive) | 33 µM (inactive) | 23 | 5.96 µM (inactive) | 2.99 µM (inactive) | 26.7 µM (inactive) | 4.09 µM (inactive) | 9.08 µM (inactive) | 10.1 µM (inactive) | 3.13 µM (inactive) | 5.58 µM (inactive) | 3.94 µM (inactive) | 33.8 µM (inactive) | 6.75 µM (inactive) | > 100 µM (inactive) | 3.57 µM (inactive) |
| CS(=O)(=O)Sc1ccc(Cl)cc1 | 2.38 µM (inactive) | 3.4 µM (inactive) | 5.87 µM (inactive) | 10.9 µM (inactive) | 3.29 µM (inactive) | 10.1 | 6.82 µM (inactive) | 9.75 µM (inactive) | 13.8 µM (inactive) | 2.83 µM (inactive) | 3.75 µM (inactive) | 2.55 µM (inactive) | 6.84 µM (inactive) | 6.32 µM (inactive) | 5.7 µM (inactive) | 11.5 µM (inactive) | 13.7 µM (inactive) | 3.82 µM (inactive) | 3.53 µM (inactive) |
| CCN(CC)c1ccc(/N=C2\C=C(Cl)C(=O)c3ncccc32)c(C)c1 | – | 21.3 µM (inactive) | 1.91 µM (inactive) | 3.37 µM (inactive) | 12.4 µM (inactive) | 3.85 | 4.68 µM (inactive) | 15.8 µM (inactive) | 3.24 µM (inactive) | 5.37 µM (inactive) | 9.71 µM (inactive) | 12.4 µM (inactive) | 7.74 µM (inactive) | 3.08 µM (inactive) | 3.24 µM (inactive) | 8.2 µM (inactive) | 5.27 µM (inactive) | 11.2 µM (inactive) | 2.88 µM (inactive) |
| O=C(CCCCCCCCC(=O)OCCCn1cc(C(=O)NC(=O)OCc2ccccc2)c(=O)[nH]c1=O)OCCCn1cc(C(=O)NC(=O)OCc2ccccc2)c(=O)[nH]c1=O | > 100 µM (inactive) | > 100 µM (inactive) | > 100 µM (inactive) | > 100 µM (inactive) | > 100 µM (inactive) | > 100 | > 100 µM (inactive) | > 100 µM (inactive) | > 100 µM (inactive) | > 100 µM (inactive) | > 100 µM (inactive) | > 100 µM (inactive) | > 100 µM (inactive) | > 100 µM (inactive) | > 100 µM (inactive) | > 100 µM (inactive) | > 100 µM (inactive) | > 100 µM (inactive) | > 100 µM (inactive) |
| NCc1cc(O)c(O)c(O)c1 | > 100 µM (inactive) | > 100 µM (inactive) | > 100 µM (inactive) | 33.7 µM (inactive) | > 100 µM (inactive) | > 100 | 80.4 µM (inactive) | > 100 µM (inactive) | – | > 100 µM (inactive) | > 100 µM (inactive) | – | > 100 µM (inactive) | > 100 µM (inactive) | 63.5 µM (inactive) | > 100 µM (inactive) | > 100 µM (inactive) | > 100 µM (inactive) | > 100 µM (inactive) |
| CCCCC[C@@H]1CCCC2NC(CCCCCO[Si](c3ccccc3)(c3ccccc3)C(C)(C)C)CCC21 (stereo partly specified) | 17.3 µM (inactive) | 17.3 µM (inactive) | 16.6 µM (inactive) | 5.31 µM (inactive) | 13.4 µM (inactive) | 11.7 | 17.3 µM (inactive) | 4.28 µM (inactive) | 15.7 µM (inactive) | 17.9 µM (inactive) | 17.5 µM (inactive) | 15.2 µM (inactive) | 15.1 µM (inactive) | 18.1 µM (inactive) | 11.5 µM (inactive) | 17.1 µM (inactive) | 8.67 µM (inactive) | 17.3 µM (inactive) | 12.6 µM (inactive) |
| CCCN(CCC)c1c([N+](=O)[O-])cc(C(=O)N(CC)CC)cc1[N+](=O)[O-] | – | 20 µM (inactive) | 14.5 µM (inactive) | 11.9 µM (inactive) | 18 µM (inactive) | 21.4 | 20.7 µM (inactive) | 22.6 µM (inactive) | 7.55 µM (inactive) | 29.4 µM (inactive) | 12.3 µM (inactive) | 24.7 µM (inactive) | 16.7 µM (inactive) | 27.5 µM (inactive) | 13.6 µM (inactive) | 22.9 µM (inactive) | – | 18.6 µM (inactive) | 16.4 µM (inactive) |
| CN(C)c1nc(Oc2nc(N(C)C)nc(N(C)C)n2)nc(N(C)C)n1 | > 100 µM (inactive) | > 100 µM (inactive) | 46 µM (inactive) | 63.5 µM (inactive) | > 100 µM (inactive) | > 100 | 82.4 µM (inactive) | > 100 µM (inactive) | 72.6 µM (inactive) | – | 67 µM (inactive) | > 100 µM (inactive) | > 100 µM (inactive) | > 100 µM (inactive) | > 100 µM (inactive) | > 100 µM (inactive) | > 100 µM (inactive) | > 100 µM (inactive) | > 100 µM (inactive) |
| C1=c2ccccc2=C2C(=C(c3ccccc3)C(c3ccccc3)=NN2c2ccccc2)S1 | > 100 µM (inactive) | > 100 µM (inactive) | – | > 100 µM (inactive) | > 100 µM (inactive) | > 100 | > 100 µM (inactive) | > 100 µM (inactive) | > 100 µM (inactive) | > 100 µM (inactive) | > 100 µM (inactive) | > 100 µM (inactive) | > 100 µM (inactive) | 58.6 µM (inactive) | > 100 µM (inactive) | > 100 µM (inactive) | > 100 µM (inactive) | > 100 µM (inactive) | > 100 µM (inactive) |
| O=c1c(Sc2c(O)c3ccccc3c3ccccc3c2=O)c(O)c2ccccc2c2ccccc12 | – | 19.3 µM (inactive) | 44.6 µM (inactive) | 19.8 µM (inactive) | 43.6 µM (inactive) | 20.5 | 31.8 µM (inactive) | 66.2 µM (inactive) | 23.7 µM (inactive) | 29.5 µM (inactive) | 44.6 µM (inactive) | 42.3 µM (inactive) | 18.9 µM (inactive) | 37.2 µM (inactive) | – | 33 µM (inactive) | 41.8 µM (inactive) | 89.3 µM (inactive) | 16.8 µM (inactive) |
| O=C(O)C12C3CCCC1C2CC3 (stereo unspecified) | > 100 µM (inactive) | > 100 µM (inactive) | > 100 µM (inactive) | > 100 µM (inactive) | > 100 µM (inactive) | > 100 | > 100 µM (inactive) | > 100 µM (inactive) | > 100 µM (inactive) | > 100 µM (inactive) | > 100 µM (inactive) | > 100 µM (inactive) | > 100 µM (inactive) | > 100 µM (inactive) | > 100 µM (inactive) | > 100 µM (inactive) | – | > 100 µM (inactive) | > 100 µM (inactive) |
| COc1ccc(C2=NN(C(C)=O)c3nc4ccccc4nc3O2)cc1 | – | 27 µM (inactive) | > 100 µM (inactive) | > 100 µM (inactive) | 46.9 µM (inactive) | 46.6 | 89.7 µM (inactive) | > 100 µM (inactive) | 55.2 µM (inactive) | 23.1 µM (inactive) | 40.6 µM (inactive) | 17.8 µM (inactive) | 8.02 µM (inactive) | 15.2 µM (inactive) | 53.3 µM (inactive) | 92.3 µM (inactive) | 11 µM (inactive) | 45.6 µM (inactive) | > 100 µM (inactive) |
| CCCCCC#COC1CC(C)CC[C@@H]1C(C)C (stereo partly specified) | – | 58.1 µM (inactive) | > 100 µM (inactive) | 26.4 µM (inactive) | 50.4 µM (inactive) | > 100 | 48 µM (inactive) | 59.4 µM (inactive) | > 100 µM (inactive) | 47.9 µM (inactive) | 56.5 µM (inactive) | > 100 µM (inactive) | > 100 µM (inactive) | > 100 µM (inactive) | 57.7 µM (inactive) | > 100 µM (inactive) | > 100 µM (inactive) | 42.7 µM (inactive) | – |
| O=C1NC2OCC(O)C(O)C2O1 (stereo unspecified) | > 100 µM (inactive) | > 100 µM (inactive) | > 100 µM (inactive) | – | > 100 µM (inactive) | > 100 | > 100 µM (inactive) | > 100 µM (inactive) | > 100 µM (inactive) | > 100 µM (inactive) | > 100 µM (inactive) | > 100 µM (inactive) | > 100 µM (inactive) | > 100 µM (inactive) | > 100 µM (inactive) | > 100 µM (inactive) | > 100 µM (inactive) | > 100 µM (inactive) | > 100 µM (inactive) |
| CC(O)C1OC(n2ccc(=O)[nH]c2=O)CC1n1cncn1 (stereo unspecified) | > 100 µM (inactive) | > 100 µM (inactive) | > 100 µM (inactive) | > 100 µM (inactive) | > 100 µM (inactive) and 98.9 µM (inactive) | > 100 | > 100 µM (inactive) | > 100 µM (inactive) | > 100 µM (inactive) | > 100 µM (inactive) | > 100 µM (inactive) | – | > 100 µM (inactive) | > 100 µM (inactive) | > 100 µM (inactive) | > 100 µM (inactive) | > 100 µM (inactive) | > 100 µM (inactive) | > 100 µM (inactive) |
